Results reported in ChEMBL document CHEMBL1201862, “PubChem BioAssay data set” (2004).
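Method: 48-hour compound exposure of cells in 96-well plates, five concentrations, linear interpolation of endpoints. GI50 marks 50% less growth.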 Activity calls are given as the source filed them. Rule as the data show it: active = GI50 up to about 1.1 µM and inactive = higher.

Legend:
Assay in all cases: NCI-60 cell line screen, 48 h
HCT-116 = tested on: HCT-116
OVCAR-3 = tested on: OVCAR-3
A549 = tested on: A549
SN12C = tested on: SN12C
Malme-3M = tested on: Malme-3M
CAKI-1 = tested on: CAKI-1
KM12 = tested on: KM12
OVCAR-4 = tested on: OVCAR-4
RPMI-8226 = tested on: RPMI-8226
SF-539 = tested on: SF-539
RXF 393 = tested on: RXF 393
HOP-62 = tested on: HOP-62
SK-MEL-5 = tested on: SK-MEL-5
SNB-75 = tested on: SNB-75
HOP-92 = tested on: HOP-92
OVCAR-8 = tested on: OVCAR-8
A498 = tested on: A498
U-251 = tested on: U-251
SNB-19 = tested on: SNB-19
HT-29 = tested on: HT-29

SMILES | GI50 (HCT-116) | GI50 (OVCAR-3) | GI50 (A549) | GI50 (SN12C) | GI50 (Malme-3M) | GI50 (CAKI-1) | GI50 (KM12) | GI50 (OVCAR-4) | GI50 (RPMI-8226) | GI50 (SF-539) | GI50 (RXF 393) | GI50 (HOP-62) | GI50 (SK-MEL-5) | GI50 (SNB-75) | GI50 (HOP-92) | GI50 (OVCAR-8) | GI50 (A498) | GI50 (U-251) | GI50 (SNB-19) | GI50 (HT-29)
O=[N+]([O-])C(/C=C(\Cl)[N+](=O)[O-])=C1Nc2ccccc2N1 | 50.1 µM (inactive) | 90.2 µM (inactive) | > 100 µM (inactive) | 39.7 µM (inactive) | 42.2 µM (inactive) | 22.1 µM (inactive) | > 100 µM (inactive) | > 100 µM (inactive) | 44.3 µM (inactive) | 35.5 µM (inactive) | 38.1 µM (inactive) | > 100 µM (inactive) | 70.8 µM (inactive) | 17.3 µM (inactive) | 18.3 µM (inactive) | 56.6 µM (inactive) | 24.8 µM (inactive) | 43.3 µM (inactive) | 75.5 µM (inactive) | 39.6 µM (inactive)
COc1c(Cl)cc(Cl)cc1S(=O)O | > 100 µM (inactive) | > 100 µM (inactive) | – | > 100 µM (inactive) | > 100 µM (inactive) | – | > 100 µM (inactive) | > 100 µM (inactive) | – | > 100 µM (inactive) | > 100 µM (inactive) | > 100 µM (inactive) | – | > 100 µM (inactive) | – | – | > 100 µM (inactive) | > 100 µM (inactive) | > 100 µM (inactive) | > 100 µM (inactive)
C=C1C(=O)C[C@@]23CCC[C@@]12CC(OCOC)C3 (stereo partly drawn) | 2.18 µM (inactive) | 2.72 µM (inactive) | 13.5 µM (inactive) | 1.93 µM (inactive) | 2.84 µM (inactive) | 2.3 µM (inactive) | 3.08 µM (inactive) | 2.19 µM (inactive) | 2.55 µM (inactive) | 3.24 µM (inactive) | 0.637 µM (active) | 12 µM (inactive) | 3.33 µM (inactive) | 2.1 µM (inactive) | 2.32 µM (inactive) | 3.09 µM (inactive) | 4.69 µM (inactive) | 8.47 µM (inactive) | 14.6 µM (inactive) | 1.99 µM (inactive)
CN(O)C(=O)CCCC(=O)NCC(C)(C)CNC(=O)CCCC(=O)N(C)O | – | > 100 µM (inactive) | > 100 µM (inactive) | – | > 100 µM (inactive) | > 100 µM (inactive) | > 100 µM (inactive) | > 100 µM (inactive) | > 100 µM (inactive) | > 100 µM (inactive) | > 100 µM (inactive) | > 100 µM (inactive) | > 100 µM (inactive) | > 100 µM (inactive) | > 100 µM (inactive) | > 100 µM (inactive) | > 100 µM (inactive) | > 100 µM (inactive) | > 100 µM (inactive) | > 100 µM (inactive)
NC(=O)c1ncn2c1NC(=O)CC2 | > 100 µM (inactive) | > 100 µM (inactive) | > 100 µM (inactive) | > 100 µM (inactive) | > 100 µM (inactive) | > 100 µM (inactive) | > 100 µM (inactive) | > 100 µM (inactive) | > 100 µM (inactive) | > 100 µM (inactive) | > 100 µM (inactive) | > 100 µM (inactive) | > 100 µM (inactive) | > 100 µM (inactive) | > 100 µM (inactive) | > 100 µM (inactive) | > 100 µM (inactive) | > 100 µM (inactive) | > 100 µM (inactive) | > 100 µM (inactive)
O=P(CCOc1ccccc1OCCP(=O)(c1ccccc1)c1ccc2c(c1)OCCOCCOCCOCCO2)(c1ccccc1)c1ccc2c(c1)OCCOCCOCCOCCO2 (stereo not drawn) | > 100 µM (inactive) | > 100 µM (inactive) | > 100 µM (inactive) | > 100 µM (inactive) | > 100 µM (inactive) | – | – | > 100 µM (inactive) | > 100 µM (inactive) | > 100 µM (inactive) | > 100 µM (inactive) | > 100 µM (inactive) | > 100 µM (inactive) | > 100 µM (inactive) | > 100 µM (inactive) | > 100 µM (inactive) | > 100 µM (inactive) | > 100 µM (inactive) | > 100 µM (inactive) | > 100 µM (inactive)
Cc1nc2cccc(F)c2c(=O)n1C1CCCCNC1=O (stereo not drawn) | > 10 µM (inactive) | > 10 µM (inactive) | > 10 µM (inactive) | > 10 µM (inactive) | – | > 10 µM (inactive) | > 10 µM (inactive) | > 10 µM (inactive) | > 10 µM (inactive) | > 10 µM (inactive) | > 10 µM (inactive) | > 10 µM (inactive) | > 10 µM (inactive) | > 10 µM (inactive) | > 10 µM (inactive) | > 10 µM (inactive) | – | > 10 µM (inactive) | > 10 µM (inactive) | > 10 µM (inactive)
C=C1CC(OC)(C(O)C(=O)N[C@H]2OCO[C@H]3C2O[C@H](C[C@@H](COC)OC)C(C)(C)C3OC)O[C@H](C)[C@@H]1C (stereo partly drawn) | < 0.00482 µM (active) | < 0.00482 µM (active) | < 0.00482 µM (active) | < 0.00482 µM (active) | – | < 0.00482 µM (active) | < 0.00482 µM (active) | < 0.00482 µM (active) | < 0.00482 µM (active) | < 0.00482 µM (active) | < 0.00482 µM (active) | < 0.00482 µM (active) | < 0.00482 µM (active) | < 0.00482 µM (active) | – | < 0.00482 µM (active) | < 0.00482 µM (active) | < 0.00482 µM (active) | < 0.00482 µM (active) | < 0.00482 µM (active)
COc1ccc(C2CC(c3sc(Nc4ccc(C)cc4)nc3C)=NN2)cc1 (stereo not drawn) | 6.46 µM (inactive) | 15.8 µM (inactive) | 15.6 µM (inactive) | 14.1 µM (inactive) | > 10 µM (inactive) | 18 µM (inactive) | 15.2 µM (inactive) | 13.3 µM (inactive) | 12.4 µM (inactive) | 15.4 µM (inactive) | 13.2 µM (inactive) | 20.7 µM (inactive) | 16 µM (inactive) | 14.8 µM (inactive) | 14.2 µM (inactive) | 15.5 µM (inactive) | 15.4 µM (inactive) | 14.8 µM (inactive) | 15.7 µM (inactive) | 11.8 µM (inactive)
NC(=O)c1csc(C2O[C@@H](COP(=O)(O)OP(=O)(O)OC[C@H]3OC(n4cnc5c(N)ncnc54)[C@H](O)[C@@H]3O)[C@H](O)[C@@H]2O)n1 (stereo partly drawn) | – | > 100 µM (inactive) | > 100 µM (inactive) | > 100 µM (inactive) | > 100 µM (inactive) | 97.9 µM (inactive) | 88.1 µM (inactive) | 73.3 µM (inactive) | 65.2 µM (inactive) | 52 µM (inactive) | – | > 100 µM (inactive) | > 100 µM (inactive) | 45 µM (inactive) | > 100 µM (inactive) | 73.8 µM (inactive) | > 100 µM (inactive) | 45.8 µM (inactive) | > 100 µM (inactive) | 87.5 µM (inactive)
NC(=S)N/N=C1\CC(c2ccccc2)Nc2ccccc21 (stereo not drawn) | – | 40.3 µM (inactive) | – | 48.1 µM (inactive) | 27.6 µM (inactive) | 66.7 µM (inactive) | – | – | 27.1 µM (inactive) | 41.7 µM (inactive) | – | – | 19.5 µM (inactive) | 16.6 µM (inactive) | 16.4 µM (inactive) | 41.6 µM (inactive) | 18.5 µM (inactive) | 39.6 µM (inactive) | 40.8 µM (inactive) | 17.2 µM (inactive)
COc1ccc(C2=NN(c3nsc4ccccc34)C(=O)CC2)cc1 | 54.2 µM (inactive) | 32.3 µM (inactive) | > 100 µM (inactive) | > 100 µM (inactive) | – | – | > 100 µM (inactive) | > 100 µM (inactive) | 30.5 µM (inactive) | > 100 µM (inactive) | > 100 µM (inactive) | > 100 µM (inactive) | 61.4 µM (inactive) | 84.3 µM (inactive) | 92 µM (inactive) | > 100 µM (inactive) | – | 91.4 µM (inactive) | 76 µM (inactive) | > 100 µM (inactive)
CCOP(=Nc1ccc(N(C)C)cc1)(OCC)OCC | > 100 µM (inactive) | > 100 µM (inactive) | > 100 µM (inactive) | – | > 100 µM (inactive) | > 100 µM (inactive) | > 100 µM (inactive) | > 100 µM (inactive) | > 100 µM (inactive) | – | > 100 µM (inactive) | > 100 µM (inactive) | > 100 µM (inactive) | > 100 µM (inactive) | > 100 µM (inactive) | > 100 µM (inactive) | > 100 µM (inactive) | > 100 µM (inactive) | > 100 µM (inactive) | –
C=CCn1c(=O)ccn(COCCO)c1=O | – | > 100 µM (inactive) | > 100 µM (inactive) | > 100 µM (inactive) | > 100 µM (inactive) | > 100 µM (inactive) | > 100 µM (inactive) | > 100 µM (inactive) | > 100 µM (inactive) | > 100 µM (inactive) | > 100 µM (inactive) | > 100 µM (inactive) | > 100 µM (inactive) | > 100 µM (inactive) | > 100 µM (inactive) | > 100 µM (inactive) | > 100 µM (inactive) | > 100 µM (inactive) | 25.8 µM (inactive) | > 100 µM (inactive)
CC(=O)O[C@@H]1C2=C(C3=C([O-])C4=CC=CC(=O)C4C(=O)C3=C2[N+]#N)[C@H](OC(C)=O)[C@@H](OC(C)=O)[C@]1(C)O (stereo partly drawn) | 0.1 µM (active) | 0.502 µM (active) | 0.292 µM (active) | – | 0.332 µM (active) | 0.407 µM (active) | 0.333 µM (active) | 0.731 µM (active) | 0.115 µM (active) | 0.508 µM (active) | 0.565 µM (active) | 0.711 µM (active) | 0.506 µM (active) | 0.186 µM (active) | 0.438 µM (active) | 0.184 µM (active) | 0.923 µM (active) | – | 0.951 µM (active) | –
